Data set [1] is described as follows: Lyophilisation solubility assay (LYSA). It is filed as physicochemical. The conditions noted are these: phosphate buffer, pH 6.5, aqueous buffer, thermodynamic from solid, 0.05 M phosphate buffer, HPLC-UV. Here is the method:
Lyophilisation Solubility Assay (LYSA):
The solubility of compounds of present invention was assessed by LYSA assay. Samples were prepared in duplicate from 10 mM DMSO stock solutions (20 μL) diluted in 30 μL pure DMSO. After evaporation of DMSO with a centrifugal vacuum evaporator, the residue was dissolved in 0.05 M phosphate buffer (150 μL, pH 6.5), which was stirred for one hour and shook for two hours. After one night, the solution was filtered using a microtiter filter plate. Then the filtrate and its 1/10 dilution were analyzed by HPLC-UV.

Data set [2] deals with A. baumannii (ATCC17978). As to the kind of experiment: 50% growth inhibitory concentration (IC50) determination assay. The data set is classed as cell-based. The conditions noted are these: Acinetobacter baumannii, ATCC17978, A. baumannii ATCC17978; Iso-Sensitest broth; 0.098 = detection limit. Put shortly: (§1)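 First, DMSO stocks are diluted two-fold to give 50–0.097 μM final. Next, wells receive bacterial suspension in Iso-Sensitest broth for ~5×10^5 CFU/mL. Plates then sit at 35±2° C while OD at 600 nm is recorded every 20 min for 16 h.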

Data set [3] deals with K. pneumoniae (ATCC10031). The description is as above. It is filed as cell-based. As to conditions: Klebsiella pneumoniae, Iso-Sensitest broth, 0.098 = detection limit. Put shortly: as §1
Data set [4] deals with S. aureus (ATCC29213). The description is as above. The data set is classed as cell-based. The conditions noted are these: Staphylococcus aureus, Iso-Sensitest broth, 0.098 = detection limit. Put shortly: as §1

These results are taken from patent US10662203B2, “Pyrido[2,3-b]indole compounds for the treatment and prophylaxis of bacterial infection” (Hoffmann-La Roche Inc., priority 2017, dated 2020).

≈ marks a conversion by molar mass, not a printed value. Bounds are passed on as bounds.

`CNc1cc(F)cc2c1[nH]c1ncc(-c3cnc4c(c3)c(=O)c(C(=O)O)cn4N)c(N3CC[C@H]4CN(C)CC43)c12` (some centres unmarked) [Example 5.05]: in data set [1], the solubility (thermodynamic) was found to be 250 µg/mL (≈ 461 µM).
In the case of `CNc1c(F)c(F)cc2c1[nH]c1ncc(-c3cnc4c(c3)c(=O)c(C(=O)O)cn4C)c(N3CC[C@H]4CN(C)CC43)c12` (some centres unmarked) [Example 1.103], in data set [2], half-maximal inhibition (IC50) was put at 0.13 µM. For the same compound, the solubility (thermodynamic) in data set [1] was found to be 11 µg/mL (≈ 19.7 µM).
As for `CNc1cc(F)c(F)c2c1[nH]c1ncc(-c3cnc4c(c3)c(=O)c(C(=O)O)cn4NC)c(N3CCC4CN(C)CCC43)c12` (centres unmarked) [Example 1.244], the solubility (thermodynamic) in data set [1] came to 254 µg/mL (≈ 432 µM).
Same read-out and setting: the value for `CNc1cc(F)c(F)c2c1[nH]c1ncc(-c3cnc4c(c3)c(=O)c(C(=O)O)cn4NC)c(N3CC4OCCN(C)C4C3)c12` (centres unmarked) [Example 1.236] was 55 µg/mL (≈ 93.1 µM); that for `CNc1cc(F)c(F)c2c1[nH]c1ncc(-c3cnc4c(c3)c(=O)c(C(=O)O)cn4N)c(N3CC[C@H]4CN(C)CC43)c12` (some centres unmarked) [Example 5.02] was 174 µg/mL (≈ 310 µM); that for `CNc1cc(F)c(F)c2c1[nH]c1ncc(-c3cnc4c(c3)c(=O)c(C(=O)O)cn4C)c(N3CC[C@@H]4CN(C)C[C@@H]43)c12` [Example 3.03B] was 180 µg/mL (≈ 322 µM).
As to `CNc1cc(F)c(F)c2c1[nH]c1ncc(-c3cnc4c(c3)c(=O)c(C(=O)O)cn4C)c(N3CC[C@]4(CN(C)CCO4)C3)c12` [Example 3.16B], the IC50 in data set [2] was 0.19 µM; in data set [3], below 0.098 µM; in data set [4], below 0.098 µM.
Regarding `CNc1cc(F)c(F)c2c1[nH]c1ncc(-c3cnc4c(c3)c(=O)c(C(=O)O)cn4NC)c(N3CCC4(CCN4C)C3)c12` (centres unmarked) [Example 1.238], the values for the IC50 in data set [2], in data set [3] and in data set [4] were 0.308 µM, below 0.098 µM and below 0.098 µM, respectively.
As to `CNc1cc(F)c(F)c2c1[nH]c1ncc(-c3cnc4c(c3)c(=O)c(C(=O)O)cn4CCOC)c(N(C)C)c12` [Example 1.24], the IC50 was 0.519 µM in data set [2], 0.238 µM in data set [3] and below 0.098 µM in data set [4].
Taken in the same sequence, the figures for `CCNc1cc(F)c(F)c2c1[nH]c1ncc(-c3cnc4c(c3)c(=O)c(C(=O)O)cn4C)c(N3CCC(N(C)C)C3)c12` (centres unmarked) [Example 1.104] were 0.137 µM, below 0.098 µM and below 0.098 µM.
Taken in the same sequence, the figures for `CNc1cc(F)cc2c1[nH]c1ncc(-c3cnc4c(c3)c(=O)c(C(=O)O)cn4C)c(N3CCC(CNC4CC4)C3)c12` (centres unmarked) [Example 1.136] were 0.172 µM, below 0.098 µM and below 0.098 µM.
In data set [1], `CNc1cc(F)c(F)c2c1[nH]c1ncc(-c3cnc4c(c3)c(=O)c(C(=O)O)cn4C)c(N3CCC[C@@H]3CN(C)C)c12` [Example 1.13] displayed a solubility (thermodynamic) of 389 µg/mL (≈ 693 µM).
For `CNc1cc(F)c(F)c2c1[nH]c1ncc(-c3cnc4c(c3)c(=O)c(C(=O)O)cn4C)c(N3C[C@@H]4[C@@H](C3)OCCN4C)c12` [Example 3.24B], the IC50 in data set [2] is 0.371 µM; in data set [3], below 0.098 µM; in data set [4] it was below 0.098 µM.
For `CNc1cc(F)cc2c1[nH]c1ncc(-c3cnc4c(c3)c(=O)c(C(=O)O)cn4C)c(N3CCCN(C)CC3)c12` [Example 1.185], the figures for the IC50 in data set [2], in data set [3] and in data set [4] were 0.524 µM, below 0.098 µM and 0.321 µM, respectively.
Taken in the same sequence, the figures for `CNc1cc(F)c(F)c2c1[nH]c1ncc(-c3cnc4c(c3)c(=O)c(C(=O)O)cn4[C@@H]3CCNC3)c(N3CCCC3)c12` [Example 1.156] were 0.478 µM, below 0.098 µM and below 0.098 µM.
Taken in the same sequence, the figures for `CNc1cc(F)c(F)c2c1[nH]c1ncc(-c3cnc4c(c3)c(=O)c(C(=O)O)cn4C)c(N3CCO[C@@H](CN(C)C)C3)c12` [Example 4.02B, (S)-6-(4-(2-((dimethylamino)methyl)morpholino)-5,6-difluoro-8-(methylamino)-9H-pyrido[2,3-b]indol-3-yl)-1-methyl-4-oxo-1,4-dihydro-1,8-naphthyridine-3-carboxylic acid] were 0.408 µM, below 0.098 µM and 0.207 µM.

By thermodynamic solubility is commonly meant solubility found after equilibrating the solid with the medium. The term IC50 denotes the point on the concentration scale where inhibition reaches its midpoint. A lower IC50 goes with higher potency.
